# Experimental data: US8445509B2, “Fused heterocyclic derivatives and use thereof” (Takeda Pharmaceutical Company Limited, priority 2008, dated 2013)
# Key:
# MKN-45 cells = experiment: Antitumor test, MKN-45 transplanted nude mouse; assay type: in vivo, nude mouse (BALB/c nu/nu); conditions: orally, 14 consecutive days
# Experimental: (§1) Cancer cells were cultured in a culture medium containing 10% bovine fetal serum in an incubator at 37° C., 5% CO2. MKN-45 cells were treated with trypsin/EDTA and isolated. MKN-45 and MV-4-11 cells were washed with HBSS (HANK's Balanced Saline Solution). When MKN-45 cells were transplanted, they were adjusted with HBSS to a cell density of 1.2×10^8 cells/mL, and transplanted by subcutaneous injection of 0.05 mL of a mixed suspension (3×10^6 cells) of the cell suspension and the same amount of Matrigel into the abdomen of 6 or 7-week-old female nude mouse (BALB/c nu/nu, CLEA Japan, Inc.). When MV-4-11 cells were transplanted, they were adjusted with HESS to a cell density of 1.2×10^8 cells/mL, and transplanted by subcutaneous injection of 0.05 mL of a mixed suspension (3×10^6 cells) of the cell suspension and the same amount of Matrigel into the abdomen of 7-week-old female nude mouse (BALB/c nu/nu, CLEA Japan, Inc.). When the average tumor volume reached 100-250 mm^3, the mice were grouped, and various doses of test substance were orally administered for 14 consecutive days starting from the next day. The length of the major axis and the length of the minor axis of the tumor were measured over time and the tumor volume was calculated by tumor volume=major axis length×minor axis length×minor axis length×0.5. The ratio of an increase in the average tumor volume of the control group to an increase in the average tumor volume of the drug administration group was taken as the tumor growth rate (%) of the drug administration group. Table 5 showned MKN-45 tumor growth rate (%) and table 6 showned MV-4-11 tumor growth rate (%).
# MV-4-11 cells = experiment: Antitumor test, MV-4-11 transplanted nude mouse; assay type: in vivo, nude mouse (BALB/c nu/nu); conditions: MV-4-11, dose 2 mg/kg, orally, 14 consecutive days
# Experimental: as §1
# [1] = system: Human umbilical vein-derived vascular endothelial cells (HUVEC); experiment: Vascular endothelial cell proliferation inhibitory test (VEGF-stimulated HUVEC); assay type: cell-based; conditions: 120 h, 5 days of culture with VEGF
# Experimental: Human umbilical vein-derived vascular endothelial cells (HUVEC purchased from KURABO […] LTD.) were cultured in an incubator at 37° C., 5% carbon dioxide in a vascular endothelial cell medium (Invitrogen) containing 3% bovine fetal serum and 2.5 ng/mL basic fibroblast growth factor. To be specific, HUVEC was suspended in a vascular endothelial cell medium containing the aforementioned 3% bovine fetal serum and plated on a 96 well flat bottom plate by 50 μL (3000 cells) each well. After culture overnight, various concentrations of the test substance and 120 ng/mL of vascular endothelial growth factor (VEGF) were dissolved in a vascular endothelial cell medium containing 3% bovine fetal serum and added to each well by 50 μL. After 5 days of culture, a Cell counting kit-8 reagent (DOJINDO LABORATORIES) was added to each well by 10 μL, and the mixture was reacted in an incubator at 37° C., 5% carbon dioxide for 2-3 hr. The absorbance at 450 nm was measured by a microtiter plate reader and the cell proliferation inhibitory activity was determined. Using the absorbance with addition of a test substance at each concentration and based on the nonlinear least-squares analysis using a logistic curve of SAS system NLIN procedure, the concentration of the test substance (IC50 value) necessary for showing 50% of the value obtained without addition of the test substance was calculated.
# [2] = molecular target: T1, Tie2 intracellular domain protein (Homo sapiens, UniProt Q02763); experiment: TIE2 kinase inhibitory activity (AlphaScreen); assay type: biochemical
# T1 construct: 50 ng/mL of Tie2 intracellular domain protein (Millipore); purchased Millipore
# Experimental: A test compound dissolved in dimethyl sulfoxide (DMSO) was diluted with a buffer (50 mM Tris-HCl (pH 7.5), 5 mM MgCl2, 5 mM MnCl2, 2 mM dithiothreitol, 0.01% Tween-20). A buffer (10 μL) containing 50 ng/mL of Tie2 intracellular domain protein (Millipore) and 250 ng/ml, of biotin labeled polypeptide biotinyl-poly-Glu:Tyr (4:1) (CIS bio International) was added to the compound solution (5 μL). At 5 min from the mixing of the kinase enzyme, the compound and the biotin labeled polypeptide, a buffer (10 μL) containing 5 μM ATP was added, and the mixture was reacted at 25° C. for 10 min. The reaction was quenched by the addition of 25 μL of a stop solution (100 mM EDTA disodium salt, 62.5 mM HEPES buffer (pH 7.4), 250 mM NaCl, 0.1% bovine serum albumin, 10 μg/ml AlphaScreen assay streptavidin donor beads (Streptavidin Donor beads: PerkinElmer), 10 μg/ml, AlphaScreen assay anti-phosphotyrosine recognition antibody PT-66 binding acceptor beads (Anti-phosphotyrosine (PT-66) Acceptor beads: PerkinElmer)). The reaction solution was allowed to stand at 25° C. for 16 hrs, and the […] were counted using a plate reader (Fusion™ (PerkinElmer)). The kinase inhibitory rate (%) of the test compound was calculated by the following formula: Inhibitory rate (%)=(1−(count of test compound−blank)÷(control−blank))×100
# (§2) The count of the solution reacted without addition of the compound was used as a “control”, and the count of the solution without the compound and ATP was used as a “blank”.
# [3] = molecular target: T2, FLT3 intracellular domain protein (Homo sapiens, UniProt P36888); experiment: Fms Like Tyrosine Kinase 3 (FLT3) kinase inhibitory activity (AlphaScreen); assay type: biochemical
# T2 construct: 7.5 ng/ml of FLT3 intracellular domain protein (Millipore); purchased Millipore
# T2 sequence (P36888 564-993 limits assumed): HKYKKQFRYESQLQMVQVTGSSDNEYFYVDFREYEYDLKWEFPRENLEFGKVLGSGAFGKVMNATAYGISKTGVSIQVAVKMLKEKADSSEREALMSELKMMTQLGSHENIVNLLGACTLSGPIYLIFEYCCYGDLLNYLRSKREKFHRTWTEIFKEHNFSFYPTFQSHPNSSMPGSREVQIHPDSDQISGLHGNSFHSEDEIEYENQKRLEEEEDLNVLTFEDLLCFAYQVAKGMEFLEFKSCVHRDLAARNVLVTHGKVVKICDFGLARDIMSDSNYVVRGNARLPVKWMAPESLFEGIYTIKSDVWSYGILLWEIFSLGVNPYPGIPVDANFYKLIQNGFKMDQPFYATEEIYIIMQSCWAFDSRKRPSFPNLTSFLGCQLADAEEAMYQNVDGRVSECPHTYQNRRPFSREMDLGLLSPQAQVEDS
# Experimental: A test compound dissolved in dimethyl sulfoxide (DMSO) was diluted with a buffer (50 mM Tris-HCl (pH 7.5), 5 mM MgCl2, 5 mM MnCl2, 2 mM dithiothreitol, 0.01% Tween-20). To this compound solution (5 μL) was added a buffer (10 μL) containing 7.5 ng/ml of FLT3 intracellular domain protein (Millipore) and 250 ng/mL of biotin labeled polypeptide biotinyl-poly-Glu:Tyr (4:1) (CIS bio International). At 5 min after mixing kinase enzyme and the compound and biotin labeled polypeptide, to the obtained mixture was added a buffer (10 μL) containing ATP (5 μM), the mixture was allowed to react at 25° C. for 10 min and the reaction was quenched with 25 μL of a stop solution (100 mM EDTA disodium salt, 62.5 mM HEPES buffer (pH 7.4), 250 mM NaCl, 0.1% bovine serum albumin, 10 μg/mL AlphaScreen assay streptavidin donor beads (Streptavidin Donor Beads: PerkinElmer), 10 μg/mL AlphaScreen assay anti-phosphotyrosine recognition antibody Y-100 binding acceptor beads (Anti-phosphotyrosine (P-Tyr-100) Acceptor beads: PerkinElmer)). The reaction solution was allowed to stand at 25° C. for 16 hrs, and the wells were counted using a plate reader (Envision™ (PerkinElmer)). The kinase inhibitory rate (%) of the test compound was calculated by the following formula: Inhibitory rate (%)=(1−(count of test compound−blank)÷(control−blank))×100
# as §2
# [4] = system: Human blood cell cancer cell line MV-4-11; experiment: Human blood cell cancer cell line MV-4-11 growth inhibitory test; assay type: cell-based; conditions: MV4-11, 72 h, culture for 3 days
# Experimental: Human blood cell cancer cell line MV-4-11 (ATCC) was cultured in IMDM (Invitrogen) containing 10% bovine fetal serum in an incubator at 37° C., 5% CO2. MV-4-11 cells were treated with trypsin/EDTA and recovered. The cells were suspended in IMDM containing 10% bovine fetal serum, plated on a 96 well flat bottom plate at a cells density of 30,000 cells/50 μL per well. After culturing overnight, various concentrations of test substance were dissolved in IMDM containing 10% bovine fetal serum and added to each well by 50 μL. After culture for 3 days, a Cell counting kit-8 reagent (DOJINDO LABORATORIES) was added to each well by 10 μL, and reacted in an incubator at 37° C., 5% CO2 for 2-3 hr. After the reaction, the absorbance of each well at 450 nm was measured by a microtiter plate reader. The concentration of a test substance necessary for inhibiting the growth by 50% (IC50 value) was calculated using a cell proliferation rate with addition of the test substance at each concentration and according to the nonlinear regression analysis using GraphPad Prism [Sigmoidal dose response (variable slope)].
# [5] = system: Human gastric cancer cell line MKN-45; experiment: Human gastric cancer cell line MKN-45 growth inhibitory test; assay type: cell-based; conditions: MKN-45, 72 h
# Experimental: Human gastric cancer cell line MKN-45 (RIKEN BioResource Center) was cultured in RPMI1640 (Invitrogen) containing 10% bovine fetal serum in a gas incubator at 37° C., 5% CO2. MKN-45 cells were treated with trypsin/EDTA and recovered. The cells were suspended in RPMI1640 containing 0.3% bovine fetal serum, plated on a 96 well flat bottom plate at a cells density of 3000 cells/50 μL per well. After culturing overnight, various concentrations of test substance were dissolved in RPMI1640 containing 0.3% bovine fetal serum and added to each well by 50 μL. After culture for 3 days, a Cell counting kit-8 reagent (DOJINDO LABORATORIES) was added to each well by 10 μL, and reacted in an incubator at 37° C., 5% CO2 for 2-3 hr. After the reaction, the absorbance of each well at 450 nm was measured by a microtiter plate reader. The concentration of a test substance necessary for inhibiting the growth by 50% (IC50 value) was calculated using a cell proliferation rate with addition of the test substance at each concentration and according to the nonlinear regression analysis using GraphPad Prism [Sigmoidal dose response (variable slope)]. The cell proliferation rate (%) with addition of a test substance at each concentration was calculated by the following formula. As a positive control (100% growth), dimethyl sulfoxide was added instead of a test substance. As a negative control (0% growth), the compound of Reference Example 136 (WO2005/030140, Entry 104), which is a known c-Met inhibitor, was added in large excess (10 μM) instead of a test substance.
# T1 sequence (Q02763 770-1124 limits assumed): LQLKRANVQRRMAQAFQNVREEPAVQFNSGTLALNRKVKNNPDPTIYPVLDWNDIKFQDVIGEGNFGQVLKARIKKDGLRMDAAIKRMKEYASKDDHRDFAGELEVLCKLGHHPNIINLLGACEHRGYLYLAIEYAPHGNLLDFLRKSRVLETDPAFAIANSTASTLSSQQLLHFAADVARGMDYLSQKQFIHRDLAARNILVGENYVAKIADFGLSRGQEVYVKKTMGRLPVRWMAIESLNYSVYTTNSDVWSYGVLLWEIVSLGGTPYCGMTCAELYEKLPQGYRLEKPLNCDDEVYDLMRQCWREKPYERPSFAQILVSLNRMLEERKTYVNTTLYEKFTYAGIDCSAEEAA
compound,measurement,setting,value
"Cc1ccc(C(=O)Nc2ccc(Oc3ccc4nc(NC(=O)C5CC5)cn4c3)c(F)c2)c(=O)n1-c1ccccc1.Cl [Example 88, N-[4-({2-[(cyclopropylcarbonyl)amino]imidazo[1,2-a]pyridin-6-yl}oxy)-3-fluorophenyl]-6-methyl-2-oxo-1-phenyl-1,2-dihydropyridine-3-carboxamide hydrochloride]",tumor growth rate (%),"MKN-45 cells; MKN-45, dose 2 mg/kg",17%
same,tumor growth rate (%),MV-4-11 cells,<0%
"Cc1ccc(C(=O)Nc2ccc(Oc3ccc4nc(NC(=O)C5CC5)cn4c3)cn2)[n+]([O-])c1-c1ccc(F)cc1.Cl.O [Example 63, N-[5-({2-[(cyclopropylcarbonyl)amino]imidazo[1,2-a]pyridin-6-yl}oxy)pyridin-2-yl]-6-(4-fluorophenyl)-5-methylpyridine-2-carboxamide 1-oxide•hydrochloride•monohydrate]",tumor growth rate (%),"MKN-45 cells; MKN-45, dose 1 mg/kg",24%
same,tumor growth rate (%),MV-4-11 cells,<0%
"Cc1ccc(C(=O)Nc2ccc(Oc3ccc4nc(NC(=O)C5CC5)cn4c3)c(F)c2)c(=O)n1-c1ccccc1 [Example 86, N-[4-({2-[(cyclopropylcarbonyl)amino]imidazo[1,2-a]pyridin-6-yl}oxy)-3-fluorophenyl]-6-methyl-2-oxo-1-phenyl-1,2-dihydropyridine-3-carboxamide acetate]",IC50,[1],≤ 2000 nM
same,IC50,[2],≤ 1000 nM
same,IC50,[3],≤ 1000 nM
same,inhibition at 1 µM,"[4]; 1 μM test substance, read-out: inhibitory rate (%) at 1 μM",≥ 90%
same,IC50,[4],≤ 1000 nM
same,IC50,[5]; read-out: IC50 value,≤ 1000 nM
same,inhibition at 1 µM,"[5]; read-out: inhibitory rate (%) at 1 μM, 1 μM test substance, culture for 3 days",≥ 80%
"Cl.O=C(Nc1cn2cc(Oc3ccc(NC(=O)C4(C(=O)Nc5ccccc5)CC4)cc3F)ccc2n1)C1CC1 [Example 15, N-[4-({2-[(cyclopropylcarbonyl)amino]imidazo[1,2-a]pyridin-6-yl}oxy)-3-fluorophenyl]-N′-phenylcyclopropane-1,1-dicarboxamide hydrochloride]",tumor growth rate (%),"MKN-45 cells; MKN-45, dose 2 mg/kg",85%
same,tumor growth rate (%),MV-4-11 cells,17%
"Cc1ccc(C(=O)Nc2ccc(Oc3ccc4nc(NC(=O)C5CC5)cn4c3)c(F)c2)c(=O)n1-c1ccccc1.Cc1ccc(S(=O)(=O)O)cc1 [Example 87, N-[4-({2-[(cyclopropylcarbonyl)amino]imidazo[1,2-a]pyridin-6-yl}oxy)-3-fluorophenyl]-6-methyl-2-oxo-1-phenyl-1,2-dihydropyridine-3-carboxamide p-toluenesulfonate]",tumor growth rate (%),"MKN-45 cells; MKN-45, dose 2 mg/kg",17%
same,tumor growth rate (%),MV-4-11 cells,<0%
